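Step 1: Grow cells in 96-well plates. Step 2: Expose to compound for 48 hours at 5 concentrations. Step 3: Interpolate endpoints linearly; if unreached, use highest concentration. GI50 = concentration required for 50% inhibition of growth.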 The source made the active and inactive calls. No stated cut-off is given here; in the data, active = GI50 up to about 1.1 µM and inactive = higher.
Columns and labels:
Test in all cases: NCI-60 cell line screen, 48 h
[1] = test system: CCRF-CEM
[2] = test system: DU-145
[3] = test system: HCT-15
[4] = test system: HL-60
[5] = test system: HOP-62
[6] = test system: HOP-92
[7] = test system: Hs-578T
[8] = test system: MCF7
[9] = test system: MOLT-4
[10] = test system: NCI-H23
[11] = test system: NCI-H460
[12] = test system: NCI-H522
[13] = test system: OVCAR-3
[14] = test system: OVCAR-4
[15] = test system: OVCAR-5
[16] = test system: SF-268
[17] = test system: SK-MEL-5
[18] = test system: SK-OV-3
[19] = test system: SNB-19
[20] = test system: SW-620

Row | SMILES | GI50 [1] | GI50 [2] | GI50 [3] | GI50 [4] | GI50 [5] | GI50 [6] | GI50 [7] | GI50 [8] | GI50 [9] | GI50 [10] | GI50 [11] | GI50 [12] | GI50 [13] | GI50 [14] | GI50 [15] | GI50 [16] | GI50 [17] | GI50 [18] | GI50 [19] | GI50 [20]
1 | O=c1c(NCc2ccccc2)c(C2(c3ccccc3F)SCCCS2)c1=O | > 100 µM (inactive) | > 100 µM (inactive) | > 100 µM | 29.2 µM (inactive) | > 100 µM (inactive) | > 100 µM (inactive) | > 100 µM (inactive) | > 100 µM (inactive) | 54 µM (inactive) | > 100 µM (inactive) | > 100 µM (inactive) | 23.7 µM (inactive) | > 100 µM (inactive) | > 100 µM (inactive) | > 100 µM (inactive) | > 100 µM (inactive) | > 100 µM (inactive) | > 100 µM (inactive) | > 100 µM (inactive) | > 100 µM (inactive)
2 | OC1c2c(ccc3c2CCC3)CC12Cc1ccccc1C2 (stereo not given) | 23.2 µM (inactive) | 16.3 µM (inactive) | 16.5 µM | 15.9 µM (inactive) | 16.4 µM (inactive) | 13 µM (inactive) | 16.6 µM (inactive) | 18 µM (inactive) | 26.6 µM (inactive) | 16.8 µM (inactive) | 17.1 µM (inactive) | 16.3 µM (inactive) | 13.6 µM (inactive) | 16.4 µM (inactive) | 17.2 µM (inactive) | 14.7 µM (inactive) | 15.6 µM (inactive) | 15.7 µM (inactive) | 15.7 µM (inactive) | 17.7 µM (inactive)
3 | NCC(Cc1ccccc1)P(=O)(O)O (stereo not given) | > 100 µM (inactive) | > 100 µM (inactive) | > 100 µM | > 100 µM (inactive) | > 100 µM (inactive) | > 100 µM (inactive) | > 100 µM (inactive) | > 100 µM (inactive) | > 100 µM (inactive) | > 100 µM (inactive) | > 100 µM (inactive) | > 100 µM (inactive) | > 100 µM (inactive) | > 100 µM (inactive) | > 100 µM (inactive) | > 100 µM (inactive) | > 100 µM (inactive) | > 100 µM (inactive) | > 100 µM (inactive) | > 100 µM (inactive)
4 | CC(C)(C)c1ccc(-c2nc3ccc([N+](=O)[O-])cc3c(=O)o2)cc1 | 20.1 µM (inactive) | 32.7 µM (inactive) | 22.6 µM | 25.5 µM (inactive) | 22.2 µM (inactive) | 15.6 µM (inactive) | 25.2 µM (inactive) | 34.1 µM (inactive) | 18.7 µM (inactive) | 28.7 µM (inactive) | 36.4 µM (inactive) | 20.1 µM (inactive) | 27.4 µM (inactive) | 17.6 µM (inactive) | 32.8 µM (inactive) | 35.7 µM (inactive) | 27.2 µM (inactive) | 31.5 µM (inactive) | 21.5 µM (inactive) | 31 µM (inactive)
5 | C[C@]12C=CC(=O)C=C1[C@@H](F)C[C@H]1[C@@H]3CC[C@](O)(C(=O)CO)[C@@]3(C)C[C@H](O)[C@@]12F | 0.543 µM (active) | > 100 µM (inactive) | > 100 µM | > 100 µM (inactive) | > 100 µM (inactive) | > 100 µM (inactive) | > 100 µM (inactive) | > 100 µM (inactive) | > 100 µM (inactive) | > 100 µM (inactive) | > 100 µM (inactive) | > 100 µM (inactive) | > 100 µM (inactive) | > 100 µM (inactive) | > 59.6 µM (inactive) | > 100 µM (inactive) | > 100 µM (inactive) | 3.33 µM (inactive) | > 100 µM (inactive) | > 100 µM (inactive)
6 | C=C(C)C(CC=C(C)C)Cc1c(O)cc(OC)c2c1OC(c1ccc(O)cc1O)C(O)C2=O (stereo not given) | 50.8 µM (inactive) | 18.3 µM (inactive) | 17 µM | > 100 µM (inactive) | 17.3 µM (inactive) | 14.6 µM (inactive) | 17.2 µM (inactive) | 13.2 µM (inactive) | > 100 µM (inactive) | 17.9 µM (inactive) | 15.5 µM (inactive) | 18.9 µM (inactive) | 16.7 µM (inactive) | 16.3 µM (inactive) | 17.7 µM (inactive) | 18.6 µM (inactive) | 18.5 µM (inactive) | 16.8 µM (inactive) | 15.5 µM (inactive) | 16.6 µM (inactive)
7 | O=S(=O)(/N=C(\NO)Nc1ccc(Cl)cc1)C1CC=C(c2ccon2)S1 (stereo not given) | 12.2 µM (inactive) | 55.3 µM (inactive) | 15.5 µM | 1.18 µM (inactive) | 40.5 µM (inactive) | 10.3 µM (inactive) | 14.7 µM (inactive) | 16.1 µM (inactive) | 3.34 µM (inactive) | 13.2 µM (inactive) | 16 µM (inactive) | 1.13 µM (inactive) | 22.5 µM (inactive) | 3.52 µM (inactive) | > 66.2 µM (inactive) | 14.7 µM (inactive) | 20.4 µM (inactive) | > 100 µM (inactive) | 30.1 µM (inactive) | 5.78 µM (inactive)
8 | Cc1ccc2c(c1)C(=O)C1(C2)Cc2c(C)cccc2C1=O (stereo not given) | > 100 µM (inactive) | > 100 µM (inactive) | > 100 µM | > 100 µM (inactive) | > 100 µM (inactive) | > 100 µM (inactive) | > 100 µM (inactive) | > 100 µM (inactive) | > 100 µM (inactive) | > 100 µM (inactive) | > 100 µM (inactive) | > 100 µM (inactive) | > 100 µM (inactive) | > 100 µM (inactive) | > 100 µM (inactive) | > 100 µM (inactive) | > 100 µM (inactive) | > 100 µM (inactive) | > 100 µM (inactive) | > 100 µM (inactive)
9 | Clc1ccc(CSCc2ccc(Cl)cc2Cl)c(Cl)c1 | 22.2 µM (inactive) | 39.6 µM (inactive) | 32.2 µM | 39.7 µM (inactive) | > 100 µM (inactive) | 54.2 µM (inactive) | 79.4 µM (inactive) | 27.7 µM (inactive) | 19.4 µM (inactive) | 78.5 µM (inactive) | 95.9 µM (inactive) | 24.8 µM (inactive) | 88.3 µM (inactive) | 36.4 µM (inactive) | > 100 µM (inactive) | 71 µM (inactive) | 29.9 µM (inactive) | > 100 µM (inactive) | > 100 µM (inactive) | 42.8 µM (inactive)
10 | C=Cc1nc2c(Cl)ncnc2n1Cc1ccccc1 | 2.74 µM (inactive) | 2.17 µM (inactive) | 2.51 µM | 2.72 µM (inactive) | 3.34 µM (inactive) | 2.07 µM (inactive) | 13.2 µM (inactive) | 1.55 µM (inactive) | 2.18 µM (inactive) | 3.52 µM (inactive) | 7.8 µM (inactive) | 1.89 µM (inactive) | 2.58 µM (inactive) | 2.76 µM (inactive) | 14.7 µM (inactive) | 6.35 µM (inactive) | 2.54 µM (inactive) | 15.3 µM (inactive) | 14.8 µM (inactive) | 5.94 µM (inactive)
11 | C(=C\c1ccccc1)/C=N/c1nc2cc3sc(/N=C/C=C/c4ccccc4)nc3cc2s1 | 8.47 µM (inactive) | > 100 µM (inactive) | 33.7 µM | 12.1 µM (inactive) | 99.3 µM (inactive) | > 100 µM (inactive) | > 100 µM (inactive) | 12.6 µM (inactive) | 7.35 µM (inactive) | 42.2 µM (inactive) | 4.16 µM (inactive) | 18.2 µM (inactive) | 24.3 µM (inactive) | > 100 µM (inactive) | > 78.7 µM (inactive) | > 63.4 µM (inactive) | > 28.9 µM (inactive) | > 100 µM (inactive) | > 100 µM (inactive) | > 45.3 µM (inactive)
12 | Cc1cc(C)nc(NS(=O)(=O)c2ccc(Nc3c4ccccc4nc4c(C(=O)NCCCN(CCO)CCO)cccc34)cc2)n1 | 7.66 µM (inactive) | 41.6 µM (inactive) | 49.2 µM | 11.5 µM (inactive) | 17.1 µM (inactive) | 5.18 µM (inactive) | 6.67 µM (inactive) | 5.89 µM (inactive) | 3.33 µM (inactive) | 29.4 µM (inactive) | 7.48 µM (inactive) | 10.9 µM (inactive) | 30.1 µM (inactive) | 16.9 µM (inactive) | 26.4 µM (inactive) | 16.9 µM (inactive) | 14.8 µM (inactive) | 50.1 µM (inactive) | 9.29 µM (inactive) | 8.36 µM (inactive)
13 | NC(=O)C1=CC2C3C=CC2(O)C(=O)OC3O1 (stereo not given) | 1.8 µM (inactive) | 3.89 µM (inactive) | 3.39 µM | 1.5 µM (inactive) | 9.06 µM (inactive) | 2.43 µM (inactive) | 1.81 µM (inactive) | 3.28 µM (inactive) | 1.88 µM (inactive) | 2.91 µM (inactive) | 17.9 µM (inactive) | 1.83 µM (inactive) | 2.43 µM (inactive) | 4.33 µM (inactive) | 22.8 µM (inactive) | 3.73 µM (inactive) | 2.38 µM (inactive) | 13.5 µM (inactive) | 13.1 µM (inactive) | 4.02 µM (inactive)
14 | c1ccc(-c2c[nH]c(SC(c3ccccc3)c3ccccc3)n2)cc1 | 19.3 µM (inactive) | 23.4 µM (inactive) | 13.3 µM | 11.1 µM (inactive) | 29 µM (inactive) | 9.51 µM (inactive) | 33.3 µM (inactive) | 20.3 µM (inactive) | 15.7 µM (inactive) | 14.7 µM (inactive) | 10.2 µM (inactive) | 17.1 µM (inactive) | 33.4 µM (inactive) | 23.4 µM (inactive) | 55.7 µM (inactive) | 43.8 µM (inactive) | 12.4 µM (inactive) | 46.9 µM (inactive) | 38 µM (inactive) | 27.6 µM (inactive)

From ChEMBL document CHEMBL1201862, “PubChem BioAssay data set” (2004)
